Assays:
[1] = tested on: patients with Peripheral vertigo; test: Open label, active comparator controlled clinical trial: MVS score (severity of vertigo symptoms); assay type: in vivo, human
Text: The MVS score, a 12-item composite score to measure the severity of vertigo symptoms, is defined as the mean intensity of 6 (unprovoked) vertigo symptoms (dysstasia and walking unsteadiness, staggering, rotary sensation, tendency to fall, lift sensation, blackout) and vertigo in consequence of 6 triggering factors [change of position (lying), bowing, getting up, driving by car/train, head movements (inclination, twist), eye movement]. The intensity of each of the 12 single symptoms is rated by the patients by means of a 5-point VAS (0=not present, 1=moderate, 2=medium, 3=strong, 4=very strong). A mean MVS serving as a measure of vertigo intensity, will be calculated by adding the scores on all 12 vertigo symptoms and dividing by 12. The scale is rated by patients directly.
(§1) The current study was designed as an open label, two-treatment arm, active comparator controlled, Clinical trial in patients with Peripheral vertigo. This study involved a screening phase, randomization and treatment phase as mentioned below: • Screening phase (Visit 1): −14 to −1 day • Baseline visit and day of randomization (Visit 2): Day 0/1 • Treatment phase: Day 1 to Day 28 • End of treatment (Visit 4): Day 29±2 days
(§2) Patients with Peripheral vertigo, meeting the mentioned eligibility criteria were identified and shortlisted patients underwent screening within 14 days prior to randomization. A total of 16 patients were randomized in the ratio of 3:1 to receive the test and active comparator products (12 patients received test product and 4 patients received active comparator product). Test product was consumed as 20 mg Levocloperastine orally three times a day for 28 days. Active comparator (standard of care) was consumed by the patients as per the investigator's sole discretion and medical judgement. The standard of care treatment included Betahistine 16 mg tablets three times daily OR Betahistine 16 mg tablets three times daily plus Acetazolamide 125 mg tablets two time daily OR Cinnarizine 25 mg tablets three times daily which was given to patient.
MVS Score: Mean change in MVS score from baseline score was compared between two treatment arms.

[2] = tested on: patients with Peripheral vertigo; test: Same clinical trial: tolerability; assay type: in vivo, human; conditions: 20 mg orally three times a day for 28 days
Text: as §1, §2

[3] = doses up to 450-fold higher than the therapeutic doses; cited from earlier work
[4] = tested on: patients with Peripheral vertigo; test: Same clinical trial: composite score of vegetative concomitant symptoms (nausea, vomiting, sweating, tachycardia), 5-point VAS; assay type: in vivo, human
Text: as §1, §2
Additionally, mean change in composite score of vegetative concomitant symptoms from baseline score was compared between two treatment arms. The absolute data and mean changes from baseline data are presented below in Table 2.

[5] = 20 mg orally three times a day for 28 days
[6] = 7 days after treatment onset [Interim visit: Day 7 + 3]
[7] = 28 days after treatment onset [end of treatment: Day 29 ± 2]

SMILES: Clc1ccc([C@@H](OCCN2CCCCC2)c2ccccc2)cc1 (racemic) [Levocloperastine]
- Efficacy on primary efficacy endpoint MVS score versus standard of care [1, 5]: equally efficacious in comparison to standard of care treatment
- MVS Score, Change from baseline, Mean ± SD ([1]; A/28 Days [Day 29 ± 2]): −1.1 ± 0.45
- MVS Score, Mean ± SD ([1]; A/28 Days [Day 29 ± 2]): 1.1 ± 0.58
- MVS Score, Change as % ([1]; A/28 Days [Day 29 ± 2] vs baseline): −50.00%
- MVS Score, Mean ± SD ([1]; Baseline (Day 0/1)): 2.2 ± 0.29
- MVS Score, Change from baseline, Mean ± SD ([1]; Interim visit [Day 7 + 3]): −0.7 ± 0.33
- MVS Score, Mean ± SD ([1]; Interim visit [Day 7 + 3]): 1.5 ± 0.49
- MVS Score, Change as % ([1]; Interim visit [Day 7 + 3] vs baseline): -31.8%
- Tolerability [2]: well tolerability in all patients
- Sedation [3]: did not induce any clinically relevant sedation
- Alleviation of vegetative concomitant symptoms versus standard of care [4, 5]: statistically better in alleviating the vegetative concomitant symptoms than the standard of care treatment
- Score of vegetative concomitant symptoms, Absolute data, Mean ± SD [4, 6]: 0.6 ± 0.73
- Score of vegetative concomitant symptoms, Change as % [4, 6]: −46.15%
- Score of vegetative concomitant symptoms, Change from baseline, Mean ± SD [4, 6]: −0.6 ± 0.81
- Score of vegetative concomitant symptoms, Absolute data, Mean ± SD [4, 7]: 0.2 ± 0.47
- Score of vegetative concomitant symptoms, Change as % [4, 7]: −84.62%
- Score of vegetative concomitant symptoms, Change from baseline, Mean ± SD [4, 7]: −1.1 ± 0.98
- Score of vegetative concomitant symptoms, Absolute data, Mean ± SD ([4]; Baseline): 1.3 ± 1.05
- Duration of treatment for comparable improvement in vegetative concomitant symptoms severity ([4]; human, in vivo): about 7 days
